Values joined by “and” are separate entries in the source; they are usually repeats but may differ in a detail not shown here. Identical values can stand only once. Like-named read-outs stand apart in the source and are kept apart here. Values belong to the molecule of their own block, whether it stands above or below them.
How the values were obtained:
Type in all cases: binding
[1] = target: T1, hMcl-1 (Homo sapiens, UniProt Q07820); assay: 1D 1H NMR aliphatic region chemical shift perturbation / titration; conditions: for CSP1 (Table S3) / CSP1 (Table S4): total shift of the two peaks overlapping at -0.616 ppm
T1 construct: His tag (N); made in house; host or cells: E. coli BL21 (DE3) gold pLysS
T1 sequence (Q07820 172-323): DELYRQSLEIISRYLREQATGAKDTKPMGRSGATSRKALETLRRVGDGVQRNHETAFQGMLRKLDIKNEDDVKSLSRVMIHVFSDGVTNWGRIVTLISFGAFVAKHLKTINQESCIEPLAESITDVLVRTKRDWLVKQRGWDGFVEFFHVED
Source text: (§1) Perturbations observed by ligand binding can be measured and qualitatively used to roughly rank order compound binding, or compound mixtures in this case, in the initial screening campaign (Figure 2). As a control, we used a potent hMcl-1 binding ligand A1210477[37] (Figure 2A).
(§2) NMR spectra were acquired on a Bruker Avance III 700 MHz spectrometer equipped with a TCI cryoprobe. All NMR data were processed and analyzed using TopSpin 4.1.0 (Bruker, Billerica, MA). For the mixture screening, each of the 96 mixtures was dissolved into a 5 mm NMR tube to a final concentration of 2 mM in the presence of 20 μM hMcl-1 in a buffer containing 40 mM Tris pH = 7.5, 150 mM NaCl, and 1 mM DTT. For each mixture, 1D ^1H-aliph experiments were acquired. For ranking purposes, a total chemical shift perturbation generated by each mixture to the five peaks around 0 ppm in the 1D ^1H-aliph spectra of hMcl-1 was considered (Figure 4). 2D-[^13C,^1H]-HSQC experiments were acquired with 20 μM protein using 32 scans with 2048 and 256 complex data points in the ^1H and ^13C dimensions, respectively, at 298 K.

[2] = target: T1, hMcl-1; assay: Isothermal titration calorimetry
Procedure: Isothermal titration calorimetry measurements were performed using an Affinity ITC autosampler from TA Instruments (New Castle, DE). The titrations were performed in a direct fashion by titrating the ligand solution into the protein. All the measurements were performed at 25 °C dissolving the agents in 50 mM phosphate at pH 7.5, 150 mM NaCl, and a final DMSO concentration of 1%. To test compound 12, the syringe was filled with a 2 mM solution of compound 12, and 20 injections of 5 μL each were performed into the cell containing a 100 μM solution of the protein. The injections were made at 200 s intervals with a stirring speed of 75 rpm. To test compound 50, the syringe was filled with a 500 μM solution of compound 50, and 20 injections of 5 μL each were performed into the cell containing a 50 μM solution of the protein. The injections were made at 200 s intervals with a stirring speed of 75 rpm. All the solutions were kept in the autosampler at 4 °C. The analysis of the thermodynamics signatures and for dissociation constant determination was performed by NanoAnalyze software (TA Instruments, New Castle, DE) and subsequently exported into Microsoft Excel.

[3] = target: T1, hMcl-1; assay: DELFIA displacement assay, biotinylated BH3 peptide from hMcl-1; conditions: for IC50: hMcl-1 16 nM, room temperature
Procedure: as §1
(§3) Each well of 96-well streptavidin-coated plates (PerkinElmer) was incubated with 100 μL of a 600 ng/mL biotinylated-BH3 peptide of sequence biotin-amino-hexanoic acid-[…]-NH2 for 2 h and washed 3 times with a wash solution (PerkinElmer). Subsequently, a mixture containing 11 μL of protein and a serial dilution of the test compounds as well as 89 μL of an Eu-N1-labeled anti-6x-His antibody (PerkinElmer) was added to each well and incubated for 2 h. Plates were then washed 3 times, and 200 μL of enhancement solution (PerkinElmer) was added to each well. After a 10 min incubation, fluorescence measurements were taken with a Victor X5 microplate reader with the excitation and emission wavelengths of 340 and 615, respectively. All the incubations were performed at room temperature. The final protein concentrations used for hBfl-1 and hMcl-1 were 15 and 16 nM, respectively and the final anti-6x-His antibody used was 22.2 ng/well. Fluorescence readings were normalized to those of 1% DMSO-treated wells and reported as % inhibition. Prism 9 (GraphPad) was used to calculate IC50 values.

[4] = target: T2, 13Cε-Met-labeled hMcl-1 (Homo sapiens, UniProt Q07820); assay: 2D [13C,1H] correlation spectra with 13Cε-Met-labeled hMcl-1
T2 construct: His tag (N); made in house; host or cells: E. coli BL21 (DE3) gold pLysS
T2 sequence (Q07820 172-323): as above
Source text: To further corroborate the possible binding location and pose of the agent, we collected NMR experiments with a selectively ^13C^ε-Met-labeled hMcl-1.[1] In the sequence of hMcl-1, there are 4 Met residues, where two located outside the biding pocket, namely, Met 170 and Met 199, while two Met residues are directly present in the BH3 binding pocket, namely, Met 231 and Met 250 (Figure 8). […] Smaller yet still relatively large perturbations were also observed in the resonances of Met 250, located also across the indole in our model but not as directly juxtaposed as Met 231 with our ligand (Figure 8). […] This piece of data supports the location of the binding of our agent and possibly also corroborates its predicted binding pose.
as §2, with “2D-[^13C,^1H]-HSQC experiments were acquired with 20 μM protein using 32 scans with 2048 and 256 complex data points in the ^1H and ^13C dimensions, respectively, at 298 K.” left out

[5] = target: T3, hBfl-1 (Homo sapiens, UniProt Q16548); assay: DELFIA displacement assay, hBfl-1; conditions: hBfl-1 15 nM
T3 sequence (Q16548 1-175): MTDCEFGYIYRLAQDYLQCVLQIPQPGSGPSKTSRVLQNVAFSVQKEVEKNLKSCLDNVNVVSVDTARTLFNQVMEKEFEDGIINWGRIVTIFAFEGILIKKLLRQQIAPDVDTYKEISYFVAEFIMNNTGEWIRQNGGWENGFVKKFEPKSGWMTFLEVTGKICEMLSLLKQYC
Procedure: as §3

[6] = 25 °C, pH 7.5, 1% DMSO, read-out: Kd by isothermal titration calorimetry
[7] = supplementary CSV, values match ITC, read-out: Kd (uM) (n=2)

dissociation constant estimated by NMR titration ([1]; 1D 1H NMR, hMcl-1 20 μM): triple-digit micromolar
CSP1 (Table S3) ([1]; listed as Compound (12)): ++ (0.05 ppm < CSP < 0.1 ppm)
Kd [2, 6]: ~450 µM
SMILES: COc1cc(C)c(C(C)C)cc1S(=O)(=O)N[C@H](CC(=O)O)C(=O)N[C@@H](CC1CCCCC1)C(N)=O [Compound 12, (R)-4-(((S)-1-Amino-3-cyclohexyl-1-oxopropan-2-yl)amino)-3-((5-isopropyl-2-methoxy-4-methylphenyl)sulfonamido)-4-oxobutanoic Acid]

CSP1 (Table S3) ([1]; listed as Compound (13)): + (0.01 ppm < CSP < 0.05 ppm)
SMILES: COc1cc(C)c(C(C)C)cc1S(=O)(=O)N[C@H](CC(=O)O)C(=O)N[C@@H](CC1CCCCC1)C(N)=O [Compound 13]

CSP1 (Table S3) [1]: + (0.01 ppm < CSP < 0.05 ppm)
SMILES: COc1cc(C)c(C(C)C)cc1S(=O)(=O)N[C@@H](CCC(=O)O)C(=O)N[C@@H](CC1CCCCC1)C(N)=O [Compound 14]

CSP1 (Table S3) [1]: + (0.01 ppm < CSP < 0.05 ppm)
SMILES: COc1cc(C)c(C(C)C)cc1S(=O)(=O)N[C@H](CCC(=O)O)C(=O)N[C@@H](CC1CCCCC1)C(N)=O [Compound 15]

CSP in the 1D-1H-aliphatic region of hMcl-1, comparison among P4 compounds ([1]; 20 μM hMcl-1, compound 100 μM): bigger CSP
Kd ([1]; 1D 1H NMR, hMcl-1 20 μM, read-out: dissociation constant estimated by NMR titration): ~30 µM
CSP1 (Table S4) [1]: +++ (0.1 ppm < CSP < 0.13 ppm)
SMILES: COc1cc(C)c(C(C)C)cc1S(=O)(=O)N[C@H](CC(=O)O)C(=O)N[C@@H](CC1CCCCC1)C(=O)N[C@H](Cc1c[nH]c2ccccc12)C(N)=O [Compound 21, (R)-4-(((S)-1-(((R)-1-Amino-3-(1H-indol-3-yl)-1-oxopropan-2-yl)amino)-3-cyclohexyl-1-oxopropan-2-yl)amino)-3-((5-isopropyl-2-methoxy-4-methylphenyl)sulfonamido)-4-oxobutanoic Acid]

More lines, now with the values behind:

SMILES: COc1cc(C)c(C(C)C)cc1S(=O)(=O)NC(CC(=O)O)C(=O)N1C(C(=O)NC(Cc2c[nH]c3ccccc23)C(N)=O)CC2CCCCC21 [Compound 50, (3R)-4-((2S)-2-(((S)-1-Amino-3-(1H-indol-3-yl)-1-oxopropan-2-yl)carbamoyl)octahydro-1H-indol-1-yl)-3-((5-isopropyl-2-methoxy-4-methylphenyl)sulfonamido)-4-oxobutanoic Acid]
CSP2 (Table S4) ([1]; shift of the peak at -0.08 ppm, 1D-1H-aliphatic spectrum): + (0.01 ppm < CSP < 0.05 ppm)
CSP1 (Table S4) [1]: +++ (0.1 ppm < CSP < 0.13 ppm)
ΔH, isothermal titration calorimetry ([2]; 25 °C): -10 kcal/mol
Kd [2, 6]: ~2 µM and 1.71 µM
LE ([2]; from ITC Kd): ~0.16
Kd [2, 7]: 1.71 ± 0.3 µM
IC50 ([3]; read-out: IC50, displacement of biotinylated-BIM peptide from hMcl-1 (DELFIA)): 7.5 µM
koff ([4]; 20 μM 13Cε-Met hMcl-1, read-out: koff, estimated upper limit from Met 231 chemical shift differences (slow exchange)): < 519 s⁻¹
dissociation constant corresponding to off-rate ([4]; assuming diffusion limited on rate of 10^9 M^–1 s^–1): low micromolar
activity against hBfl-1 in DELFIA displacement assay [5]: inactive

SMILES: COc1ccc2[nH]cc(CC(NC(=O)C3CC4CCCCC4N3C(=O)C(CC(=O)O)NS(=O)(=O)c3cc(C(C)C)c(C)cc3OC)C(N)=O)c2c1 (stereo not shown) [Compound 59]
Kd [2, 6]: 4.62 ± 0.37 µM
Kd [2, 7]: 4.62 ± 0.4 µM

SMILES: COc1ccc(C(C)C)cc1S(=O)(=O)NC(CC(=O)O)C(=O)N1C(C(=O)NC(Cc2c[nH]c3ccccc23)C(N)=O)CC2CCCCC21 (stereo not shown) [Compound 60]
Kd [2, 6]: 2.84 ± 0.67 µM
Kd [2, 7]: 2.84 ± 0.7 µM

SMILES: Cc1nn(C)c(COc2ccc(N3CCN(S(=O)(=O)N(C)C)CC3)cc2)c1-c1cccc2c(CCCOc3cccc4ccccc34)c(C(=O)O)n(CCN3CCOCC3)c12 [Compound A1210477]
LE ([3]; from DELFIA IC50): ~0.17
IC50 ([3]; read-out: IC50, displacement of biotinylated BH3 peptide from hMcl-1 (DELFIA)): 0.014 µM

— publication PMC10388297, “Mixture-Based Screening of Focused Combinatorial Libraries by NMR: Application to the Antiapoptotic Protein hMcl-1” (Journal of Medicinal Chemistry, 2023)
